In the assay the test system is HIV-1 (patient-derived viruses comprising the K65R mutation in RT). Briefly: Resistance test vector (PHENOSENSE) phenotypic drug susceptibility assay, luciferase readout, single round of replication in 293 cells. The format is cell-based. As to conditions: 1.7 fold is the threshold for d4T resistance. Here is the method:
In preferred embodiments, the phenotypic analysis of d4T resistance or susceptibility is performed using PHENOSENSE™ (ViroLogic Inc., South San Francisco, Calif.). See Petropoulos et al., 2000, Antimicrob. Agents Chemother. 44:920-928; U.S. Pat. Nos. 5,837,464 and 6,242,187. PHENOSENSE™ is a phenotypic assay that achieves the benefits of phenotypic testing and overcomes the drawbacks of previous assays. Because the assay has been automated, PHENOSENSE™ provides high throughput methods under controlled conditions for determining replication capacity of a large number of individual viral isolates.
The assay can be performed by first co-transfecting host cells with RTV DNA and a plasmid that expresses the envelope proteins of another retrovirus, for example, amphotropic murine leukemia virus (MLV). Following transfection, viral particles can be harvested from the cell culture and used to infect fresh target cells in the presence of varying amounts of anti-viral drug(s). The completion of a single round of viral replication in the fresh target cells can be detected by the means for detecting replication contained in the vector. […] The susceptibility of an HIV, or population of HIV, can be determined by measuring the concentration of antiviral drug at which the luciferase activity detected is half-maximal. […]

`Cc1cn([C@H]2C=C[C@@H](CO)O2)c(=O)[nH]c1=O` [d4T, stavudine]: the “IC50 fold higher than wild-type” value reads like this: (most of the viruses comprising only the K65R mutation in RT (202 viruses)) “less than 1.7 fold”; (some of the viruses comprising only the K65R mutation in RT (202 viruses)) “greater than 1.7 fold”.
